This is an account of results in PMC3721637 (Chemistry & biology, 2009).

Series [1] can be described thus: Biomarker dosing in rats following IFN-γ treatment, plasma level. The series is classed as in vivo, rat.
Series [2] addresses recombinant soluble HLA-DQ2 heterodimer (thrombin-cleaved DQ2-αI-gliadin peptide complex) (human) (UniProt P01909). Kind of series: SEC.

No end group written: not given here. carboxyfluorescein = carboxyfluorescein N-terminal label Some results are limits rather than exact numbers.

On to “LQLQPF (PQPHLPY)3PQPQPF [[^13C3]-HHH-33-mer]”, for which the “IFN-γ-treated rats with biomarker detected in plasma” value in series [1] (20 mg oral gavage after 2 days i.v. IFN-γ, plasma 60 min, 3Q LC-MS/MS) is given as “one of four”. In addition, in series [1] (rats, oral biomarker, single animals with detectable plasma biomarker), the “plasma level in IFN-γ-treated animal relative to control animal” value is given as ~ 10 fold.
For carboxyfluorescein-LQLQPFPQPELPYPQPELPYPQPELPYPQPQPF [fluorescein-conjugated EEE-33-mer (synthetically deamidated 33-mer from α2-gliadin)], the percent of peptide bound in series [2] was > 80%.
carboxyfluorescein-LQLQPFPQPNLPYPQPNLPYPQPNLPYPQPQPF [fluorescein-conjugated NNN-33-mer biomarker]: in series [2], the fold by which EEE-33-mer binds more than this peptide was 15.6 fold.
